Literature values in patent US12296050B2, “Pharmaceutical compositions comprising maralixibat and uses thereof” (Mirum Pharmaceuticals, Inc., priority 2023, dated 2025).

Target: T1, apical sodium co-dependent bile acid transport (Homo sapiens, UniProt Q12908)
T1 sequence (Q12908 1-348): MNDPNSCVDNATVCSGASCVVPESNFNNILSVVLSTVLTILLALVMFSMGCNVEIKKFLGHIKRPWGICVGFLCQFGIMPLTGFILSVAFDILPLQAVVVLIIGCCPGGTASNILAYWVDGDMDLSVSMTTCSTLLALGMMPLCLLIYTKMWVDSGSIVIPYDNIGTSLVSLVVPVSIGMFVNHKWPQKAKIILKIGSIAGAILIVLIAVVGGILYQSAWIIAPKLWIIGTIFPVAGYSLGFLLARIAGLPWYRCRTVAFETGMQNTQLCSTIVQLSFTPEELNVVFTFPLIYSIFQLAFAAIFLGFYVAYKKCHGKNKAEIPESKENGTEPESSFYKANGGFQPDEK
Conditions: known from U.S. Pat. No. 5,994,391

- Effect on apical sodium co-dependent bile acid transport, in words: inhibits
Structure (SMILES): CCCCC1(CCCC)CS(=O)(=O)c2ccc(N(C)C)cc2[C@@H](c2ccc(OCc3ccc(C[N+]45CCN(CC4)CC5)cc3)cc2)[C@H]1O.[Cl-] [maralixibat chloride]
